Laboratory results taken from patent US7491495B2, “Adsorption of nucleic acids to a solid phase” (Roche Diagnostics Operations, Inc., priority 2004, dated 2009).
Read-outs that look alike come from different tables or passages of the source.

Target: proteinase K (Parengyodontium album, UniProt P06873)
Details: relative to 0 min control buffer without chaotropic agent (0.5 U/ml = 100%); for Activity of proteinase K at t = 0 min: 0 min value; for Activity of proteinase K at t = 15 min: 15 min value
Method: 10 μl of a 20 mg/ml stock solution of proteinase K (Roche Diagnostics GmbH, Mannheimm, catalogue no. 745723; 90 mg dissolved in 4.5 ml water) was mixed with a chaotropic buffer containing 50 mM Tris-HCl pH 6.0, 1% DTT, 20% TRITON X-100 and x M Guanidinum thiocyanate; x=0, 1, 2, 3, 4, 5, 6). Directly after mixing the proteinase K activity was measured in a first aliquot (10 μl) of the mixture using the assay described below (0 min activity value). 15 min after mixing the proteinase K activity was measured in a second aliquot (10 μl) of the mixture using the assay described below (15 min activity value).
10 μl of the proteinase K in chaotropic buffer (see above, (A)) were mixed with assay buffer, that is to say 980 μl 0.2 M Triethanolamin, 0.05% (weight by volume) PEG 6000, 0.1 M Calcium chloride, and 10 μl of a 200 mM substate solution. The substrate was Suc-Ala-Ala-Ala-p-Nitroanilid. The assay buffer was provided in a cuvette. Immediately after mixing the cuvette was placed in a Photometer. Measurements (absorption) were taken over 15 min at 25° C. The activity of proteinase K in the assay buffer was calculated from the kinetics as indicated by a change in absorption at 405 nm.
Table 1 lists the 0 min values of the activity of proteinase K in the presence of guanidinium thiocyanate at the different concentrations given in (A). Table 2 lists the 15 min values of the activity of proteinase K in the presence of guanidinium thiocyanate at the different concentrations given in (A) as well as the control value (no chaotropic agent present). The values are expressed in relation to the 0 min activity value of proteinase K in the control buffer without chaotropic agent (see (A)), corresponding to 0.5 U/ml; this value was set as 100%. The data of Table 1 and Table 2 are graphically represented in FIG. 1 and FIG. 2.

Sequence of proteinase K (P06873 106-384): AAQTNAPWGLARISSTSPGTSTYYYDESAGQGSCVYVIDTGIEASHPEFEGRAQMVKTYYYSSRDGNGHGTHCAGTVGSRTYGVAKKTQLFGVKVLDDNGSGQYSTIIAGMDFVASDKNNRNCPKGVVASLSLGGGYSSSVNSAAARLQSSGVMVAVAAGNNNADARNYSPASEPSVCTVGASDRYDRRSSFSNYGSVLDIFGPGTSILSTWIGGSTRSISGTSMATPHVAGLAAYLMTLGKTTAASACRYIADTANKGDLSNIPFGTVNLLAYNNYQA

SMILES: N#CS.N=C(N)N [guanidinium thiocyanate]
- Activity of proteinase K at t = 0 min (1 M guanidinium thiocyanate): 94%
- Activity of proteinase K at t = 15 min (1 M guanidinium thiocyanate): 95%
- Activity of proteinase K at t = 0 min (2 M guanidinium thiocyanate): 100%
- Activity of proteinase K at t = 15 min (2 M guanidinium thiocyanate): 95%
- Activity of proteinase K at t = 0 min (3 M guanidinium thiocyanate): 66%
- Activity of proteinase K at t = 15 min (3 M guanidinium thiocyanate): 1%
- Activity of proteinase K at t = 0 min (4 M guanidinium thiocyanate): 1%
- Activity of proteinase K at t = 15 min (4 M guanidinium thiocyanate): 0%
- Activity of proteinase K at t = 0 min (5 M guanidinium thiocyanate): 0%
- Activity of proteinase K at t = 15 min (5 M guanidinium thiocyanate): 0%
- Activity of proteinase K at t = 0 min (6 M guanidinium thiocyanate): 0%
- Activity of proteinase K at t = 15 min (6 M guanidinium thiocyanate): 0%
